According to patent publication US12559474B2, “Triazine derivatives having virus replication inhibitory activity and pharmaceutical composition comprising the same” (priority 2021, dated 2026):
Read-outs that look alike come from different tables or passages of the source.

What was measured:
SARS-CoV-2 = assay: microbe, parasite or virus in culture; format: cell-based; conditions: Severe acute respiratory syndrome coronavirus 2, VeroE6/TMPRSS2, 72 h, 50% SARS-CoV-2 infected cell death inhibitory concentration, VeroE6/TMPRSS2 cells, 3 days culture
SARS-CoV-2 3CL protease = SARS-CoV-2 3CL protease (Severe acute respiratory syndrome coronavirus 2, UniProt P0DTD1); assay: biochemical; conditions: 50% SARS-CoV-2 3CL protease inhibitory concentration, read-out: IC50

| SMILES | EC50 (SARS-CoV-2; class symbols) [nM] | IC50 (SARS-CoV-2 3CL protease; given as class symbols) [nM] | EC50 (SARS-CoV-2; CellTiter-Glo 2.0) [nM] | IC50 (SARS-CoV-2 3CL protease; RapidFire MS) [nM] |
| --- | --- | --- | --- | --- |
| CC1(Cn2cc3cc(Nc4nc(=O)n(Cc5ccc[nH]c5=O)c(=O)n4Cc4cc(F)c(F)c(F)c4)c(Cl)cc3n2)COC1 [II-0099] | 1000 to 10000 | < 100 | – | – |
| CNc1cncc(-n2c(=O)nc(Nc3cc4cn(C)nc4cc3Cl)n(Cc3cc(F)c(F)c(F)c3)c2=O)c1 [II-0602] | < 1000 | < 100 | – | – |
| Cn1cnc(Cn2c(=O)nc(Nc3cc4cn(CC5CCCO5)nc4cc3Cl)n(Cc3cc(Cl)c(F)cc3F)c2=O)n1 (racemic) [II-0409] | 1000 to 10000 | < 100 | – | – |
| CNc1nc2cc(Cl)c(Nc3nc(=O)n(-c4cncc(C)c4)c(=O)n3Cc3cc(C#N)c(F)cc3C)cc2o1 [II-0346] | < 1000 | < 100 | – | – |
| Cn1cc2cc(Nc3nc(=O)n(-c4cncc(Cl)c4)c(=O)n3Cc3cc(C#N)c(F)cn3)c(Cl)cc2n1 [II-0538] | 1000 to 10000 | < 100 | – | – |
| Cc1nc2cc(Cl)c(Nc3nc(=O)n(Cc4ccc[nH]c4=O)c(=O)n3Cc3cc(F)c(F)c(Cl)c3)cc2n1C [Compound I-0264] | 1000 to 10000 | < 100 | – | – |
| Cn1cc2cc(Nc3nc(=O)n(-c4cncc(N)c4)c(=O)n3Cc3cc(F)c(F)c(Cl)c3)c(Cl)cc2n1 [II-0384] | 1000 to 10000 | < 100 | – | – |
| Cn1cnc(Cn2c(=O)nc(Nc3cc4cn(C)nc4cc3Cl)n(Cc3ccc(F)c(Cl)c3)c2=O)n1 [II-0050] | < 1000 | < 100 | – | – |
| COc1ccc(Nc2nc(=O)n(Cc3cc(Cl)c[nH]c3=O)c(=O)n2Cc2cc(F)c(F)c(F)c2)cc1 [Compound I-0069] | 1000 to 10000 | < 100 | – | – |
| O=c1[nH]cc(Cl)cc1Cn1c(=O)nc(Nc2cc3cn(CCCO)nc3cc2Cl)n(Cc2cc(F)c(F)c(F)c2)c1=O [Compound I-0454] | 1000 to 10000 | < 100 | – | – |
| Cc1cncc(-n2c(=O)nc(Nc3cc4cn(C)nc4cc3Cl)n(Cc3cc(F)c(F)cc3OCC(F)(F)F)c2=O)c1 [II-0435] | 1000 to 10000 | < 100 | – | – |
| COc1ccc(Nc2nc(=O)n(Cc3ccc[nH]c3=O)c(=O)n2Cc2cc(F)c(F)c(F)c2)cc1 [Compound I-0020] | 1000 to 10000 | < 100 | – | – |
| Cc1nc2cc(Cl)c(Nc3nc(=O)n(Cc4ccc[nH]c4=O)c(=O)n3Cc3cc(F)c(F)c(F)c3)cc2n1CC(F)F [Compound I-0444] | 1000 to 10000 | < 100 | 3940 | 5.1 |
| O=c1[nH]cc(Cl)cc1Cn1c(=O)nc(Nc2cc3cn(CCN4CCOCC4)nc3cc2Cl)n(Cc2cc(F)c(F)c(F)c2)c1=O [Compound I-0250] | 1000 to 10000 | < 100 | – | – |
| Cc1cncc(-n2c(=O)nc(Nc3cc4cn(C)nc4cc3Cl)n(Cc3cc(Cl)ccc3C(F)(F)F)c2=O)c1 [II-0077] | < 1000 | < 100 | – | – |
| COc1nc2cc(Cl)c(Nc3nc(=O)n(Cc4ccc[nH]c4=O)c(=O)n3Cc3cc(F)c(F)c(F)c3)cc2s1 [II-0418] | – | – | 6240 | 110 |
| Cn1cnc(Cn2c(=O)cc(Nc3cc4cn(C(F)F)nc4cc3Cl)n(Cc3cc(F)c(F)c(F)c3)c2=O)n1 [II-0431] | < 1000 | < 100 | – | – |
| Cn1cnc(Cn2c(=O)cc(Nc3cc4cn(C(F)F)nc4cc3Cl)n(Cc3ccc(F)c(C#N)c3)c2=O)n1 [II-0433] | < 1000 | < 100 | – | – |
| Cn1cc2cc(Nc3nc(=O)n(-c4cncc5c4COC5)c(=O)n3Cc3cc(Cl)c(F)cc3F)c(Cl)cc2n1 [II-0499] | – | – | 680 | 12 |

| SMILES | EC50 (SARS-CoV-2; class symbols) [nM] | IC50 (SARS-CoV-2 3CL protease; given as class symbols) [nM] | EC50 (SARS-CoV-2; CellTiter-Glo 2.0) [nM] | IC50 (SARS-CoV-2 3CL protease; RapidFire MS) [nM] |
| --- | --- | --- | --- | --- |
| Cc1cncc(-n2c(=O)nc(Nc3ccc4nn(C)cc4c3)n(Cc3cc(F)c(F)cc3F)c2=O)c1 [II-0111] | – | – | 1910 | 78 |
| C#Cc1cc(Cn2c(Nc3cc4cn(C)nc4cc3Cl)nc(=O)n(-c3cncc(C)c3)c2=O)ccc1F [II-0590] | < 1000 | < 100 | – | – |
| CSc1nc(=O)n(-c2cncc3ccccc23)c(=O)n1Cc1cc(F)c(F)c(F)c1 [II-0232] | < 1000 | – | – | 3700 |
| Cc1cncc(-n2c(=O)nc(Nc3cc4cn(C)nc4cc3Cl)n(Cc3cc(F)c(F)cc3C)c2=O)c1 [II-0403] | < 1000 | < 100 | – | – |
| Cc1nc2cc(Nc3nc(=O)n(Cc4ccc[nH]c4=O)c(=O)n3Cc3cc(F)c(F)c(F)c3)c(Cl)cc2o1 [Compound I-0461] | 1000 to 10000 | < 100 | – | – |
| Cc1cncc(-n2c(=O)nc(Nc3cc4cn(C)nc4cc3Cl)n(Cc3cc(Cl)ccc3C)c2=O)c1 [II-0332] | – | – | 54 | 2 |
| Cn1cnc(Cn2c(=O)nc(Nc3cc4cn(C)nc4cc3F)n(Cc3cc(F)c(F)c(F)c3)c2=O)n1 [II-0064] | 1000 to 10000 | < 100 | – | – |
| COc1ccc(Nc2nc(=O)n(Cc3ccc(C)[nH]c3=O)c(=O)n2Cc2cc(F)c(F)c(F)c2)cc1 [Compound I-0358] | – | 100 to 1000 | 7450 | 120 |
| Cn1cnc(Cn2c(=O)nc(Nc3cc4cn(C)nc4cc3F)n(Cc3cc(Cl)c(F)cc3F)c2=O)n1 [II-0515] | 1000 to 10000 | < 100 | – | – |
| COc1cc(F)c(C#N)cc1Cn1c(Nc2cc3cn(C)nc3cc2Cl)nc(=O)n(-c2cncc(C)c2)c1=O [II-0093] | – | – | 487 | 12 |
| Cc1cncc(-n2c(=O)nc(Nc3cc4cn(C)nc4cc3Cl)n(Cc3cc(Cl)cc(C#N)c3)c2=O)c1 [II-0186] | 1000 to 10000 | < 100 | – | – |
| Cc1cncc(-n2c(=O)nc(Nc3cc4sc(NCC(F)F)nc4cc3F)n(Cc3ccc(F)c(C#N)c3)c2=O)c1 [II-0424] | 1000 to 10000 | < 100 | – | – |
| Cc1cncc(-n2c(=O)nc(Nc3cc4cn(C)nc4cc3Cl)n(Cc3cc(F)c(F)cc3C#N)c2=O)c1 [II-0070] | 1000 to 10000 | < 100 | – | – |
| O=c1[nH]cc(F)cc1Cn1c(=O)nc(Nc2cc3c(cc2Cl)OCC3)n(Cc2cc(F)c(F)cc2F)c1=O [II-0022] | < 1000 | < 100 | – | – |
| Cn1cc2cc(Nc3nc(=O)n(-c4cnc5ccccn45)c(=O)n3Cc3cc(Cl)c(F)cc3F)c(Cl)cc2n1 [II-0487] | 1000 to 10000 | < 100 | – | – |
| COc1ccc(Nc2nc(=O)n(Cc3cc4cc(OC)ccc4[nH]c3=O)c(=O)n2Cc2cc(F)c(F)c(F)c2)cc1 [Compound I-0100] | 1000 to 10000 | < 100 | – | – |
| Cc1cncc(-n2c(=O)nc(Nc3cc(-c4ccc[nH]c4=O)sc3C)n(Cc3cc(F)c(F)c(F)c3)c2=O)c1 [II-0289] | – | – | 16000 | 240 |
| Cc1cncc(-n2c(=O)nc(Nc3cc4ccnn4cc3Cl)n(Cc3ccc(F)c(C#N)c3)c2=O)c1 [II-0477] | 1000 to 10000 | < 100 | – | – |
| Cc1cncc(-n2c(=O)nc(Nc3ccc4ncccc4c3)n(Cc3ccc(F)c(C#N)c3)c2=O)c1 [II-0204] | 1000 to 10000 | < 100 | – | – |

| SMILES | EC50 (SARS-CoV-2; class symbols) [nM] | IC50 (SARS-CoV-2 3CL protease; given as class symbols) [nM] | EC50 (SARS-CoV-2; CellTiter-Glo 2.0) [nM] | IC50 (SARS-CoV-2 3CL protease; RapidFire MS) [nM] |
| --- | --- | --- | --- | --- |
| Cc1cncc(-n2c(=O)nc(Nc3cc4cn(C)nc4cc3Cl)n(Cc3cc(Cl)ccc3C#N)c2=O)c1 [II-0426] | < 1000 | < 100 | – | – |
| CC(C)(O)Cn1cc2cc(Nc3nc(=O)n(Cc4ccc[nH]c4=O)c(=O)n3Cc3cc(F)c(F)c(F)c3)c(Cl)cc2n1 [Compound I-0447] | 1000 to 10000 | < 100 | – | – |
| Cc1cncc(-n2c(=O)nc(Nc3cc4sc(NCC(F)(F)F)nc4cc3Cl)n(Cc3ccc(F)c(C#N)c3)c2=O)c1 [II-0526] | 1000 to 10000 | < 100 | – | – |
| Cc1cncc(-n2c(=O)nc(Nc3cc4cn(C)nc4cc3Cl)n(Cc3cc(Cl)c(F)cn3)c2=O)c1 [II-0541] | < 1000 | < 100 | – | – |
| N#Cc1cc(Cn2c(Nc3cc4c(cc3Cl)OCC4)nc(=O)n(Cc3cc(F)c[nH]c3=O)c2=O)ccc1F [Compound I-0271] | 1000 to 10000 | < 100 | – | – |
| Cn1cnc(Cn2c(=O)nc(Nc3cc4cn(C)nc4cc3Cl)n(Cc3cccc(F)c3F)c2=O)n1 [II-0217] | 1000 to 10000 | < 100 | – | – |
| O=c1nc(Nc2cc3cn(CCO)nc3cc2Cl)n(Cc2cc(Cl)c(F)cc2F)c(=O)n1Cc1ncccn1 [II-0238] | 1000 to 10000 | < 100 | – | – |
| Cc1cc(F)c(C#N)cc1Cn1c(Nc2ccc3nn(C)cc3c2)nc(=O)n(-c2cncc(Cl)c2)c1=O [II-0571] | – | – | 190 | 5.4 |
| Cn1cc2cc(Nc3nc(=O)n(-c4cncc(Cl)c4)c(=O)n3Cc3cc(C#N)c(F)cc3Cl)ccc2n1 [II-0282] | – | – | 260 | 8.8 |
| Cn1cnc(Cn2c(=O)nc(Nc3cc4cn(CC(F)F)nc4cc3F)n(Cc3cc(F)c(F)cc3F)c2=O)n1 [II-0359] | 1000 to 10000 | < 100 | – | – |
| Cn1cnc(Cn2c(=O)nc(Nc3cc4cn(C(F)F)nc4cc3Cl)n(Cc3cc(F)c(F)c(F)c3)c2=O)n1 [Compound I-0434] | 1000 to 10000 | < 100 | – | – |
| Cc1cncc(-n2c(=O)nc(Nc3cc4c(C)n(C)nc4cc3Cl)n(Cc3cc(F)c(F)c(F)c3)c2=O)c1 [II-0449] | < 1000 | < 100 | – | – |
| N#Cc1cc(Cn2c(Nc3cc4c(cc3Cl)OCC4)nc(=O)n(Cc3ccc[nH]c3=O)c2=O)ccc1F [Compound I-0013] | 1000 to 10000 | < 100 | – | – |
| Cc1cncc(-n2c(=O)nc(Nc3cc4cn(C)nc4cc3Cl)n(Cc3cc(Br)cc(C#N)c3)c2=O)c1 [II-0210] | 1000 to 10000 | < 100 | – | – |
| Cn1cnc(Cn2c(=O)nc(Nc3cc4cn(C5CCOCC5)nc4cc3Cl)n(Cc3cc(Cl)c(F)cc3F)c2=O)n1 [II-0098] | 1000 to 10000 | < 100 | – | – |
| Cn1cc(-c2ccnc(Cn3c(=O)nc(Nc4cc5cn(C)nc5cc4Cl)n(Cc4cc(F)c(F)cc4F)c3=O)c2)cn1 [II-0254] | 1000 to 10000 | < 100 | – | – |
| Cn1cc2cc(Nc3nc(=O)n(-c4cncc(Cl)c4)c(=O)n3Cc3ccc(F)c(C#N)c3)ccc2n1 [II-0608] | – | – | 487 | 19 |
| CC(=O)Nc1nc2cc(Cl)c(Nc3nc(=O)n(-c4cncc(C)c4)c(=O)n3Cc3cc(F)c(F)cc3F)cc2s1 [II-0563] | 1000 to 10000 | < 100 | – | – |
| CCn1cc2cc(Nc3nc(=O)n(-c4cncc(Cl)c4)c(=O)n3Cc3cc(C#N)c(F)cc3C)ccc2n1 [II-0559] | – | – | 246 | 6.4 |
